Test results from US6706706B2, “Non-nucleoside reverse transcriptase inhibitors” (priority 2002, dated 2004).

The compounds below were run on HIV replication in C8166 cells, virus coding for wild type reverse transcriptase (assay: microbe, parasite or virus in culture). Settings: Human immunodeficiency virus 1, 72 h, three days, extracellular p24.
Type: cell-based, HIV-1
Procedure: The compound of the invention was tested for its ability to inhibit HIV replication in cell culture in a 96-well plate assay. Complete RPMI 1640, consisting of RPMI 1640+10% fetal bovine serum, 10 μg/ml gentamycin and 10 μM β-mercaptoethanol was used for dilution of the compound as well as cell growth medium. The T lymphocyte cell line C8166 was infected at a multiplicity of infection of 0.001 with viruses coding for wild type and mutant reverse transcriptase. Cells were then incubated for three days in the presence of serial dilutions of the compound of the invention. The supernatant was pooled from eight replica wells and the concentration of extracellular p24 was determined using a commercially available HIV-1 p24 antigen assay kit (Beckman-Coulter®). The level of inhibition (% inhibition) was calculated with the following equation: [formula]

`CCN1c2ncc(CCOc3ccc(C=CC(=O)O)cc3C)cc2C(=O)N(C)c2cccnc21` [Entry 1010] and `CCN1c2ncc(CCOc3ccc(C(=O)O)cc3C)cc2C(=O)N(C)c2cccnc21` [Entry 1002] cannot be ordered by EC50: < 50 nM for the first, < 50 nM for the second.

`CCN1c2ncc(CCOc3ccc(CCC(=O)O)cc3C)cc2C(=O)N(C)c2cccnc21` [Entry 1008] and `CCN1c2ncc(CCOc3ccc(CC(=O)O)cc3C)cc2C(=O)N(C)c2cccnc21` [Entry 1014] cannot be ordered by EC50: < 50 nM for the first, < 50 nM for the second.

`CCN1c2ncc(CCOc3ccc(C(=O)O)c(O)c3C)cc2C(=O)N(C)c2cccnc21` [Entry 1004] and `CCN1c2ncc(CCOc3ccc(C(=O)O)c(C)c3C)cc2C(=O)N(C)c2cccnc21` [Entry 1001] cannot be ordered by EC50: < 50 nM for the first, < 50 nM for the second.

`CCN1c2ncc(CCOc3ccc(C(=O)OC)cc3C)cc2C(=O)N(C)c2cccnc21` [Entry 1030] and `CCN1c2ncc(CCOc3ccc(C(=O)O)cc3Cl)cc2C(=O)N(C)c2cccnc21` [Entry 1023] cannot be ordered by EC50: < 50 nM for the first, < 50 nM for the second.

First: CCN1c2ncc(CCOc3ccc(C(=O)O)cc3[N+](=O)[O-])cc2C(=O)N(C)c2cccnc21 [Entry 1022]
Second: CCN1c2ncccc2NC(=O)c2cc(CCOc3ccc(C(=O)O)cc3C)cnc21 [Entry 1029]
The EC50 of the first is higher: 50 to 100 nM for the first, < 50 nM for the second.

`CCN1c2ncc(CCOc3ccc(CCC(=O)O)cc3C)cc2C(=O)N(C)c2ccc(Cl)nc21` [Entry 1007] and `CCN1c2ncc(CCOc3ccc(C=CC(=O)O)cc3C)cc2C(=O)N(C)c2ccc(Cl)nc21` [Entry 1009] cannot be ordered by EC50: < 50 nM for the first, < 50 nM for the second.

For `CCN1c2ncc(CCOc3ccc(C(=O)O)cc3C)cc2C(=O)Nc2c(C)ccnc21` [Entry 1018], the EC50 was < 50 nM.

These compounds were tested against HIV-1 RT wild-type (WT) (Human immunodeficiency virus type 1 group M subtype B, UniProt P03366) (assay: biochemical). Settings: not given.

First: CCN1c2ncc(CCOc3ccc(C(=O)OC)c(F)c3)cc2C(=O)N(C)c2cccnc21 [Entry 1035]
Second: CCN1c2ncc(CCOc3ccc(C(=O)O)c(F)c3)cc2C(=O)N(C)c2cccnc21 [Entry 1025]
The IC50 of the first is lower: < 50 nM for the first, 50 to 100 nM for the second. The first is the more potent here.

`CCN1c2ncc(CCOc3ccc(C=CC(=O)O)cc3C)cc2C(=O)N(C)c2cccnc21` [Entry 1010] and `CCN1c2ncc(CCOc3ccc(C(=O)O)cc3C)cc2C(=O)N(C)c2cccnc21` [Entry 1002] cannot be ordered by IC50: < 50 nM for the first, < 50 nM for the second.

Compared with `CCN1c2ncc(CCOc3ccc(C(=O)OC)cc3C(F)(F)F)cc2C(=O)N(C)c2cccnc21` [Entry 1033], `CCN1c2ncc(CCOc3ccc(C(=O)O)cc3C(F)(F)F)cc2C(=O)N(C)c2cccnc21` [Entry 1027] is higher in IC50: < 50 nM for the first, 50 to 100 nM for the second. The first is the more potent here.

`CCN1c2ncc(CCOc3ccc(CCC(=O)O)cc3C)cc2C(=O)N(C)c2cccnc21` [Entry 1008] and `CCN1c2ncc(CCOc3ccc(CC(=O)O)cc3C)cc2C(=O)N(C)c2cccnc21` [Entry 1014] cannot be ordered by IC50: < 50 nM for the first, < 50 nM for the second.

`CCN1c2ncc(CCOc3ccc(C(=O)O)c(O)c3C)cc2C(=O)N(C)c2cccnc21` [Entry 1004] and `CCN1c2ncc(CCOc3ccc(C(=O)O)c(C)c3C)cc2C(=O)N(C)c2cccnc21` [Entry 1001] cannot be ordered by IC50: < 50 nM for the first, < 50 nM for the second.

`CCN1c2ncc(CCOc3ccc(C(=O)OC)cc3C)cc2C(=O)N(C)c2cccnc21` [Entry 1030] and `CCN1c2ncc(CCOc3ccc(C(=O)OC)cc3Cl)cc2C(=O)N(C)c2cccnc21` [Entry 1032] cannot be ordered by IC50: < 50 nM for the first, < 50 nM for the second.

`CCN1c2ncc(CCOc3ccc(CC(=O)O)cc3Br)cc2C(=O)N(C)c2cccnc21` [Entry 1012] and `CCN1c2ncc(CCOc3ccc(CC(=O)O)cc3Cl)cc2C(=O)N(C)c2cccnc21` [Entry 1011] cannot be ordered by IC50: < 50 nM for the first, < 50 nM for the second.

First: CCN1c2ncc(CCOc3ccc(C(=O)O)c(Cl)c3)cc2C(=O)N(C)c2cccnc21 [Entry 1026]
Second: CCN1c2ncc(CCOc3ccc(C(=O)O)c(N)c3)cc2C(=O)N(C)c2cccnc21 [Entry 1024]
The IC50 of the first is higher: 50 to 100 nM for the first, < 50 nM for the second.

`CCc1cc(C(=O)OC)ccc1OCCc1cnc2c(c1)C(=O)N(C)c1cccnc1N2CC` [Entry 1031] and `CCc1cc(C(=O)O)ccc1OCCc1cnc2c(c1)C(=O)N(C)c1cccnc1N2CC` [Entry 1003] cannot be ordered by IC50: < 50 nM for the first, < 50 nM for the second.

`CCN1c2ncc(CCOc3ccc(C(=O)O)cc3[N+](=O)[O-])cc2C(=O)N(C)c2cccnc21` [Entry 1022] and `CCN1c2ncc(CCOc3ccc(C(=O)O)cc3Cl)cc2C(=O)N(C)c2cccnc21` [Entry 1023] fall in the same range of IC50: 50 to 100 nM for the first, 50 to 100 nM for the second.

`CCN1c2ncccc2NC(=O)c2cc(CCOc3ccc(C(=O)O)cc3C)cnc21` [Entry 1029] and `CCN1c2ncc(CCOc3ccc(C(=O)O)cc3C)cc2C(=O)Nc2c(C)ccnc21` [Entry 1018] cannot be ordered by IC50: < 50 nM for the first, < 50 nM for the second.

`CCN1c2ncc(CCOc3ccc(CCC(=O)O)cc3C)cc2C(=O)N(C)c2ccc(Cl)nc21` [Entry 1007] and `CCN1c2ncc(CCOc3ccc(C(=O)O)cc3C)cc2C(=O)N(C)c2ccc(Cl)nc21` [Entry 1015] cannot be ordered by IC50: < 50 nM for the first, < 50 nM for the second.

`CCN1c2ncc(CCOc3ccc(CC(=O)O)c(C)c3C)cc2C(=O)N(C)c2cccnc21` [Entry 1013] and `CCN1c2ncc(CCOc3ccc(C(C)C(=O)O)cc3C)cc2C(=O)N(C)c2cccnc21` (stereo not drawn) [Entry 1006] cannot be ordered by IC50: < 50 nM for the first, < 50 nM for the second.

`CCN1c2ncc(CCOc3ccc(C(=O)O)cc3Br)cc2C(=O)N(C)c2cccnc21` [Entry 1005] and `CCN1c2ncc(CCOc3ccc(C(=O)O)cc3C)cc2C(=O)N(C)c2ccc(F)nc21` [Entry 1020] cannot be ordered by IC50: < 50 nM for the first, < 50 nM for the second.

`CCN1c2ncc(CCOc3ccc(C(=O)O)cc3C)cc2C(=O)N(C)c2ccc(C)nc21` [Entry 1017] and `CCN1c2ncc(CCOc3ccc(C(=O)O)cc3C)cc2C(=O)N(C)c2ccc(OC)nc21` [Entry 1019] cannot be ordered by IC50: < 50 nM for the first, < 50 nM for the second.

`CCOc1ccc2c(n1)N(CC)c1ncc(CCOc3ccc(C(=O)OC)cc3C)cc1C(=O)N2C` [Entry 1034] and `CCOc1ccc2c(n1)N(CC)c1ncc(CCOc3ccc(C(=O)O)cc3C)cc1C(=O)N2C` [Entry 1021] cannot be ordered by IC50: < 50 nM for the first, < 50 nM for the second.

`CCN1c2ncc(CCOc3ccc(C=CC(=O)O)cc3C)cc2C(=O)N(C)c2ccc(Cl)nc21` [Entry 1009] and `CCN1c2ncc(CCOc3ccc(C(=O)O)cc3C)cc2C(=O)N(C)c2ccc(N(C)C)nc21` [Entry 1028] cannot be ordered by IC50: < 50 nM for the first, < 50 nM for the second.

With `CCN1c2ncc(CCOc3ccc(C(=O)O)cc3C)cc2C(=O)Nc2c(C)cc(Cl)nc21` [Entry 1016] the IC50 was < 50 nM.
